This experiment relates to Erythrocyte beta receptor. Kind of experiment: Free energy of binding to turkey erythrocyte beta receptor. More on the design: unit not given here. The conditions noted are these: Meleagris gallopavo.
`CC(C)(C)NC[C@H](O)COc1cccc2[nH]ccc12` showed a Delta G of -13.5. The figure for `CC(C)NC[C@H](O)c1ccc(O)c(NS(C)(=O)=O)c1` is -7.36; for `CC(C)(C)NC[C@H](O)COC1=CC=CC2C(=O)C=CC=C12` (some centres not stated) it is -11.9.

`CC(Cc1ccc2c(c1)OCO2)NC[C@H](O)c1ccc(O)c(O)c1` (some centres not stated) registered a Delta G of -9.88. Turning to `CCNC[C@H](O)c1cccc(O)c1`, the Delta G is -6.75.

`CC(C)NC[C@H](O)COc1ccc(O)cc1`: the Delta G was -8.91. In the case of `NC[C@H](O)COc1cccc2ccccc12`, the Delta G was -10.9. For `CC(C)NC[C@H](O)COc1cccc2c(O)cccc12` the value was -11.2.

Consider `CC(C)NC[C@H](O)c1ccc(NS(C)(=O)=O)cc1`, for which the Delta G is -8.46. The molecule `CC(C)NC[C@@H](O)COc1cccc2ccccc12` registered a Delta G of -11.7. Turning to `CC(C)NC[C@H](O)COc1ccccc1I`, the Delta G was -12.8. Regarding `CC(Cc1ccc(O)cc1)NC[C@H](O)c1cc(O)cc(O)c1` (some centres not stated), the Delta G is -8.62. In turn, `CC(C)NC[C@H](O)c1cc(O)cc(O)c1` showed a Delta G of -7.13. `C=CCc1cccc(OC[C@@H](O)CNC(C)C)c1` had a Delta G of -8.82.

As to `CC(C)NC[C@H](O)c1ccc(O)cc1`, the Delta G is -7.54. `CNC[C@H](O)c1ccccc1` came in with a Delta G of -6.79.

As for `CC(C)NCC(O)c1ccc(O)c(O)c1` (configuration not stated), the Delta G is -9.18. The figure for `CNC[C@H](O)c1ccc(O)c(O)c1` is -7.86; for `CS(=O)(=O)Nc1cc([C@@H](O)CNC2CC2)ccc1O` it is -8.19; for `CC(C)(Cc1ccc(O)cc1)NC[C@H](O)c1ccc(O)c(O)c1` it is -10. `CC(C)NC[C@H](O)COc1ccc(O)c(O)c1` showed a Delta G of -9.13. The molecule `CC(C)NC[C@H](O)c1ccc(O)c(CS(C)(=O)=O)c1` had a Delta G of -7.85. As to `CC(C)(Cc1ccc(O)cc1)NC[C@H](O)COc1cccc2ccccc12`, the Delta G was -11.2. `CCNC[C@H](O)c1ccc(O)c(O)c1` returned a Delta G of -7.59. With `NC[C@H](O)c1ccc(O)cc1`, the Delta G was -5.94. Consider `C=CCOc1ccccc1OC[C@@H](O)CNC(C)C`, for which the Delta G was -11.6.

`COc1ccc(CC(C)NC[C@H](O)c2ccc(O)c(CO)c2)cc1` (some centres not stated) gave a Delta G of -7.65. For `CC(C)(C)NC[C@H](O)c1cc(O)cc(CO)c1`, the Delta G was -6.58. Molecule `CC(C)NC[C@H](O)COc1ccc(N)cc1` yielded a Delta G of -8.96. For `CC(C)(Cc1ccccc1)NC[C@H](O)c1ccc(O)c(NS(C)(=O)=O)c1`, the Delta G was -9.64.

In turn, `O[C@@H](CNc1ccccc1)c1ccccc1` had a Delta G of -5.76.

In turn, `CNC[C@H](O)c1cccc(O)c1` showed a Delta G of -6.72.

The molecule `CC(C)NC[C@H](O)COc1cccc2[nH]ccc12` displayed a Delta G of -13. Molecule `CC(C)NC[C@H](O)c1ccc(NS(C)(=O)=O)c(O)c1` registered a Delta G of -6.29. For `Oc1ccc(CCNC[C@H](O)COc2cccc3ccccc23)cc1` the value was -10.9. Molecule `CC(CCc1ccccc1)N[C@@H](C)[C@H](O)c1ccc(O)cc1` (some centres not stated) came in with a Delta G of -9.55. For `CC(C)NC[C@H](O)c1ccc(Cl)c(Cl)c1` the value was -8.83; for `COc1ccc(CCNC[C@H](O)COC2=CC=CC3C(=O)C=CC=C23)cc1OC` (some centres not stated), -11.3; for `CC(C)NC[C@H](O)c1ccc2ccccc2c1`, -9.06.

Take `CN[C@@H](C)[C@H](O)c1ccc(O)cc1`: the Delta G is -6.47. In the case of `CC(C)(Cc1ccc(O)cc1)NC[C@H](O)c1cc(O)cc(CO)c1`, the Delta G is -7.61. For `CC(C)NC[C@H](O)c1cccc(O)c1` the value was -7.99; for `CNC[C@H](O)c1ccc(O)cc1`, -6.01. On to `C[C@H](NCCc1ccccc1)[C@H](O)c1ccc(O)cc1`, for which the Delta G is -9.01. The molecule `CC(=O)Nc1ccc(OC[C@@H](O)CNC(C)C)cc1` displayed a Delta G of -7.54.

For `C=CCc1ccccc1OC[C@@H](O)CNC(C)C`, the Delta G was -12.1. On to `C[C@H](COc1ccccc1)NC[C@H](O)c1ccc(O)cc1`, for which the Delta G was -7.95. In turn, `CC(C)(C)NC[C@H](O)c1ccc(O)c(CO)c1` displayed a Delta G of -8.23. `CC(C)(Cc1ccc(O)cc1)NC[C@H](O)COc1cccc2[nH]ccc12` registered a Delta G of -14.7. The molecule `CC(Cc1ccc(O)cc1)NC[C@H](O)c1ccc(O)c(O)c1` (some centres not stated) yielded a Delta G of -10.4. `C[C@H](N)[C@H](O)c1ccc(O)c(O)c1` registered a Delta G of -9.64. For the molecule `C[C@H](N)[C@H](O)c1ccc(O)cc1`, the Delta G is -6.27. For the molecule `CC(C)NC[C@H](O)c1ccc(O)c2ncccc12`, the Delta G was -10.4.

The molecule `CC[C@H](NC(C)C)[C@H](O)c1ccc(O)c(O)c1` yielded a Delta G of -8.02. `NC[C@H](O)c1cccc(O)c1` returned a Delta G of -7.23. For `CC[C@H](NC(C)C)[C@H](O)c1ccc(NS(C)(=O)=O)cc1` the value was -7.41; for `NC[C@H](O)c1ccc(O)c(O)c1`, -7.26.

(Values after ChEMBL document CHEMBL1123401, “Mapping the turkey erythrocyte beta receptor: a distance geometry approach” (J Med Chem, 1986).)
